These results are taken from patent US20250223268A1, “4-Methylsulfonylbenzamide Compound, Preparation Method, Herbicidal Composition And Use” (Jiangsu Flag Chemical Industry Co., Ltd., priority 2022, published 2025).

What all share (test): Greenhouse herbicidal activity assay, post-emergence
Common to all, as to type: in vivo
Common to all, as to conditions: Post-emergence test, rate 150 g a.i./hm^2; grade by fresh weight inhibition rate

For one test, the system named is Eclipta prostrata. The procedure, abridged: (§1)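 Letter grades (A: ≥80% to 100%; C: ≥40% to <60%; E: <20%) express fresh weight inhibition recorded 14-21 days post-spray. Weeds were treated on the leaves once they reached 3-6 leaves in chamber-grown pots, allowed to dry naturally, then kept in the chamber.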
For another test, the system named is Digitaria sanguinalis. In short, it runs like this:
as §1

The subject of a further test is Echinochloa crusgalli. The procedure, abridged:
as §1

The next test relates to Cyperus iria. In short, it runs like this: as §1
The subject of the next test is Leptochloa chinensis. The procedure, abridged:
as §1

For `CS(=O)(=O)c1ccc(C(=O)Nc2nnco2)c(Cl)c1[S+]([O-])CC1CC1` (racemic) [Compound 3-299], in the test on Eclipta prostrata, the “Control efficacy grade, Eclipta prostrata” value is “A (Fresh weight inhibition rate≥80% to 100%)”. Besides, in the test on Digitaria sanguinalis, the “Control efficacy grade, Digitaria sanguinalis” value is recorded as “A (Fresh weight inhibition rate≥80% to 100%)”. Further, in the test on Echinochloa crusgalli, the “Control efficacy grade, Echinochloa crusgalli” value is given as “A (Fresh weight inhibition rate≥80% to 100%)”. Besides, the “Control efficacy grade, Cyperus iria” value in the test with Cyperus iria is “A (Fresh weight inhibition rate≥80% to 100%)”. Moreover, in the test on Leptochloa chinensis, the “Control efficacy grade, Leptochloa chinensis” value is “A (Fresh weight inhibition rate≥80% to 100%)”.

With `CS(=O)(=O)c1ccc(C(=O)Nc2nnco2)c(Cl)c1[S+]([O-])C1CC1` (racemic) [Compound 3-304], in the test on Eclipta prostrata, the “Control efficacy grade, Eclipta prostrata” value is “A (Fresh weight inhibition rate≥80% to 100%)”. Also, the “Control efficacy grade, Digitaria sanguinalis” value with Digitaria sanguinalis is “A (Fresh weight inhibition rate≥80% to 100%)”. The “Control efficacy grade, Echinochloa crusgalli” value with Echinochloa crusgalli was “A (Fresh weight inhibition rate≥80% to 100%)”. In addition, the “Control efficacy grade, Cyperus iria” value with Cyperus iria was “A (Fresh weight inhibition rate≥80% to 100%)”. For the same molecule, the “Control efficacy grade, Leptochloa chinensis” value in the test with Leptochloa chinensis is on record as “A (Fresh weight inhibition rate≥80% to 100%)”.

For `CS(=O)(=O)c1ccc(C(=O)Nc2nnco2)c(Cl)c1[S+]([O-])C1CCC1` (racemic) [Compound 3-309], the “Control efficacy grade, Eclipta prostrata” value with Eclipta prostrata was “A (Fresh weight inhibition rate≥80% to 100%)”. The “Control efficacy grade, Digitaria sanguinalis” value in the test on Digitaria sanguinalis was “A (Fresh weight inhibition rate≥80% to 100%)”. Further, the “Control efficacy grade, Echinochloa crusgalli” value in the test on Echinochloa crusgalli is listed as “A (Fresh weight inhibition rate≥80% to 100%)”. Moreover, the “Control efficacy grade, Cyperus iria” value in the test on Cyperus iria was “A (Fresh weight inhibition rate≥80% to 100%)”. Also, the “Control efficacy grade, Leptochloa chinensis” value in the test on Leptochloa chinensis was “A (Fresh weight inhibition rate≥80% to 100%)”.

As to `CS(=O)(=O)c1ccc(C(=O)Nc2nnco2)c(Cl)c1[S+]([O-])C1CCCC1` (racemic) [Compound 3-314], in the test with Eclipta prostrata, the “Control efficacy grade, Eclipta prostrata” value is listed as “A (Fresh weight inhibition rate≥80% to 100%)”. Besides, the “Control efficacy grade, Digitaria sanguinalis” value in the test on Digitaria sanguinalis is given as “A (Fresh weight inhibition rate≥80% to 100%)”. In the test with Echinochloa crusgalli, the “Control efficacy grade, Echinochloa crusgalli” value is given as “A (Fresh weight inhibition rate≥80% to 100%)”. The “Control efficacy grade, Cyperus iria” value in the test on Cyperus iria was “A (Fresh weight inhibition rate≥80% to 100%)”. For the same molecule, the “Control efficacy grade, Leptochloa chinensis” value in the test with Leptochloa chinensis was “A (Fresh weight inhibition rate≥80% to 100%)”.

Consider `CS(=O)(=O)c1ccc(C(=O)Nc2nnco2)c(Cl)c1[S+]([O-])C1CCCCC1` (racemic) [Compound 3-319], for which, in the test with Eclipta prostrata, the “Control efficacy grade, Eclipta prostrata” value was “A (Fresh weight inhibition rate≥80% to 100%)”. In addition, in the test with Digitaria sanguinalis, the “Control efficacy grade, Digitaria sanguinalis” value is reported as “A (Fresh weight inhibition rate≥80% to 100%)”. The “Control efficacy grade, Echinochloa crusgalli” value with Echinochloa crusgalli is “A (Fresh weight inhibition rate≥80% to 100%)”. Besides, in the test with Cyperus iria, the “Control efficacy grade, Cyperus iria” value is given as “A (Fresh weight inhibition rate≥80% to 100%)”. For the same molecule, the “Control efficacy grade, Leptochloa chinensis” value in the test on Leptochloa chinensis is given as “A (Fresh weight inhibition rate≥80% to 100%)”.

On to `CS(=O)(=O)c1ccc(C(=O)Nc2nnco2)c(Cl)c1[S+]([O-])CC(F)(F)F` (racemic) [Compound 3-324], for which the “Control efficacy grade, Eclipta prostrata” value in the test with Eclipta prostrata is reported as “A (Fresh weight inhibition rate≥80% to 100%)”. Besides, the “Control efficacy grade, Digitaria sanguinalis” value with Digitaria sanguinalis is “A (Fresh weight inhibition rate≥80% to 100%)”. In addition, the “Control efficacy grade, Echinochloa crusgalli” value with Echinochloa crusgalli is “A (Fresh weight inhibition rate≥80% to 100%)”. In addition, the “Control efficacy grade, Cyperus iria” value in the test on Cyperus iria is “A (Fresh weight inhibition rate≥80% to 100%)”. In addition, the “Control efficacy grade, Leptochloa chinensis” value with Leptochloa chinensis is “A (Fresh weight inhibition rate≥80% to 100%)”.

For the molecule `CS(=O)(=O)c1ccc(C(=O)Nc2nnco2)c(Cl)c1[S+]([O-])CC(F)F` (racemic) [Compound 3-329], the “Control efficacy grade, Eclipta prostrata” value with Eclipta prostrata is recorded as “A (Fresh weight inhibition rate≥80% to 100%)”. Further, the “Control efficacy grade, Digitaria sanguinalis” value in the test on Digitaria sanguinalis is “A (Fresh weight inhibition rate≥80% to 100%)”. Also, the “Control efficacy grade, Echinochloa crusgalli” value in the test with Echinochloa crusgalli was “A (Fresh weight inhibition rate≥80% to 100%)”. Besides, in the test on Cyperus iria, the “Control efficacy grade, Cyperus iria” value is reported as “A (Fresh weight inhibition rate≥80% to 100%)”. For the same molecule, the “Control efficacy grade, Leptochloa chinensis” value with Leptochloa chinensis was “A (Fresh weight inhibition rate≥80% to 100%)”.

`C=CC[S+]([O-])c1c(S(C)(=O)=O)ccc(C(=O)Nc2nnco2)c1Cl` (racemic) [Compound 3-339]: the “Control efficacy grade, Eclipta prostrata” value in the test with Eclipta prostrata is listed as “A (Fresh weight inhibition rate≥80% to 100%)”. In the test on Digitaria sanguinalis, the “Control efficacy grade, Digitaria sanguinalis” value is “A (Fresh weight inhibition rate≥80% to 100%)”. In addition, the “Control efficacy grade, Echinochloa crusgalli” value with Echinochloa crusgalli was “A (Fresh weight inhibition rate≥80% to 100%)”. In addition, in the test on Cyperus iria, the “Control efficacy grade, Cyperus iria” value is on record as “A (Fresh weight inhibition rate≥80% to 100%)”. Besides, the “Control efficacy grade, Leptochloa chinensis” value with Leptochloa chinensis was “A (Fresh weight inhibition rate≥80% to 100%)”.

In the case of `CS(=O)(=O)c1ccc(C(=O)Nc2nnco2)c(Cl)c1[S+]([O-])CCCl` (racemic) [Compound 3-379], in the test with Eclipta prostrata, the “Control efficacy grade, Eclipta prostrata” value is “A (Fresh weight inhibition rate≥80% to 100%)”. Besides, in the test with Digitaria sanguinalis, the “Control efficacy grade, Digitaria sanguinalis” value was “A (Fresh weight inhibition rate≥80% to 100%)”. Further, the “Control efficacy grade, Echinochloa crusgalli” value in the test with Echinochloa crusgalli is listed as “A (Fresh weight inhibition rate≥80% to 100%)”. For the same molecule, the “Control efficacy grade, Cyperus iria” value with Cyperus iria is reported as “A (Fresh weight inhibition rate≥80% to 100%)”. Besides, the “Control efficacy grade, Leptochloa chinensis” value in the test with Leptochloa chinensis was “A (Fresh weight inhibition rate≥80% to 100%)”.

As to `CCC[S+]([O-])c1c(S(C)(=O)=O)ccc(C(=O)Nc2nnc(CC)o2)c1Cl` (racemic) [Compound 3-384], the “Control efficacy grade, Eclipta prostrata” value in the test with Eclipta prostrata was “A (Fresh weight inhibition rate≥80% to 100%)”. In addition, in the test on Digitaria sanguinalis, the “Control efficacy grade, Digitaria sanguinalis” value was “A (Fresh weight inhibition rate≥80% to 100%)”. The “Control efficacy grade, Echinochloa crusgalli” value with Echinochloa crusgalli is listed as “A (Fresh weight inhibition rate≥80% to 100%)”. The “Control efficacy grade, Cyperus iria” value in the test on Cyperus iria is “A (Fresh weight inhibition rate≥80% to 100%)”. Besides, the “Control efficacy grade, Leptochloa chinensis” value in the test with Leptochloa chinensis is on record as “A (Fresh weight inhibition rate≥80% to 100%)”.

For the molecule `CCCC[S+]([O-])c1c(S(C)(=O)=O)ccc(C(=O)Nc2nnc(CC)o2)c1Cl` (racemic) [Compound 3-394], the “Control efficacy grade, Eclipta prostrata” value in the test on Eclipta prostrata is recorded as “A (Fresh weight inhibition rate≥80% to 100%)”. Besides, the “Control efficacy grade, Digitaria sanguinalis” value in the test with Digitaria sanguinalis was “A (Fresh weight inhibition rate≥80% to 100%)”. Also, in the test on Echinochloa crusgalli, the “Control efficacy grade, Echinochloa crusgalli” value is listed as “A (Fresh weight inhibition rate≥80% to 100%)”. Further, in the test with Cyperus iria, the “Control efficacy grade, Cyperus iria” value is given as “A (Fresh weight inhibition rate≥80% to 100%)”. In the test on Leptochloa chinensis, the “Control efficacy grade, Leptochloa chinensis” value is “A (Fresh weight inhibition rate≥80% to 100%)”.

With `CCc1nnc(NC(=O)c2ccc(S(C)(=O)=O)c([S+]([O-])CC(C)C)c2Cl)o1` (racemic) [Compound 3-410], the “Control efficacy grade, Eclipta prostrata” value in the test on Eclipta prostrata is “A (Fresh weight inhibition rate≥80% to 100%)”. Also, in the test with Digitaria sanguinalis, the “Control efficacy grade, Digitaria sanguinalis” value was “A (Fresh weight inhibition rate≥80% to 100%)”. Besides, the “Control efficacy grade, Echinochloa crusgalli” value in the test with Echinochloa crusgalli is listed as “C (Fresh weight inhibition rate≥40% to <60%)”. The “Control efficacy grade, Cyperus iria” value in the test with Cyperus iria is listed as “A (Fresh weight inhibition rate≥80% to 100%)”. Moreover, the “Control efficacy grade, Leptochloa chinensis” value in the test on Leptochloa chinensis is reported as “A (Fresh weight inhibition rate≥80% to 100%)”.

Take `CCc1nnc(NC(=O)c2ccc(S(C)(=O)=O)c([S+]([O-])CC3CC3)c2Cl)o1` (racemic) [Compound 3-415]: the “Control efficacy grade, Eclipta prostrata” value with Eclipta prostrata is reported as “A (Fresh weight inhibition rate≥80% to 100%)”. The “Control efficacy grade, Digitaria sanguinalis” value with Digitaria sanguinalis is “A (Fresh weight inhibition rate≥80% to 100%)”. Further, the “Control efficacy grade, Echinochloa crusgalli” value in the test on Echinochloa crusgalli is given as “A (Fresh weight inhibition rate≥80% to 100%)”. Besides, the “Control efficacy grade, Cyperus iria” value with Cyperus iria is on record as “A (Fresh weight inhibition rate≥80% to 100%)”. The “Control efficacy grade, Leptochloa chinensis” value in the test with Leptochloa chinensis is reported as “A (Fresh weight inhibition rate≥80% to 100%)”.

As to `CCc1nnc(NC(=O)c2ccc(S(C)(=O)=O)c([S+]([O-])C3CC3)c2Cl)o1` (racemic) [Compound 3-420], the “Control efficacy grade, Eclipta prostrata” value in the test on Eclipta prostrata is given as “A (Fresh weight inhibition rate≥80% to 100%)”. Further, in the test on Digitaria sanguinalis, the “Control efficacy grade, Digitaria sanguinalis” value is given as “A (Fresh weight inhibition rate≥80% to 100%)”. Further, in the test on Echinochloa crusgalli, the “Control efficacy grade, Echinochloa crusgalli” value is on record as “A (Fresh weight inhibition rate≥80% to 100%)”. The “Control efficacy grade, Cyperus iria” value with Cyperus iria was “A (Fresh weight inhibition rate≥80% to 100%)”. The “Control efficacy grade, Leptochloa chinensis” value in the test on Leptochloa chinensis is “A (Fresh weight inhibition rate≥80% to 100%)”.

Take `CCc1nnc(NC(=O)c2ccc(S(C)(=O)=O)c([S+]([O-])C3CCC3)c2Cl)o1` (racemic) [Compound 3-425]: the “Control efficacy grade, Eclipta prostrata” value in the test on Eclipta prostrata is reported as “A (Fresh weight inhibition rate≥80% to 100%)”. For the same molecule, the “Control efficacy grade, Digitaria sanguinalis” value with Digitaria sanguinalis is recorded as “A (Fresh weight inhibition rate≥80% to 100%)”. Besides, the “Control efficacy grade, Echinochloa crusgalli” value in the test with Echinochloa crusgalli is reported as “A (Fresh weight inhibition rate≥80% to 100%)”. Also, in the test with Cyperus iria, the “Control efficacy grade, Cyperus iria” value is recorded as “A (Fresh weight inhibition rate≥80% to 100%)”. For the same molecule, in the test with Leptochloa chinensis, the “Control efficacy grade, Leptochloa chinensis” value is given as “A (Fresh weight inhibition rate≥80% to 100%)”.

For the molecule `CCc1nnc(NC(=O)c2ccc(S(C)(=O)=O)c([S+]([O-])C3CCCC3)c2Cl)o1` (racemic) [Compound 3-430], the “Control efficacy grade, Eclipta prostrata” value in the test with Eclipta prostrata was “A (Fresh weight inhibition rate≥80% to 100%)”. Further, in the test on Digitaria sanguinalis, the “Control efficacy grade, Digitaria sanguinalis” value was “A (Fresh weight inhibition rate≥80% to 100%)”. Also, the “Control efficacy grade, Echinochloa crusgalli” value with Echinochloa crusgalli is listed as “A (Fresh weight inhibition rate≥80% to 100%)”. In addition, the “Control efficacy grade, Cyperus iria” value with Cyperus iria is “A (Fresh weight inhibition rate≥80% to 100%)”. For the same molecule, the “Control efficacy grade, Leptochloa chinensis” value in the test on Leptochloa chinensis is recorded as “A (Fresh weight inhibition rate≥80% to 100%)”.

On to `CCc1nnc(NC(=O)c2ccc(S(C)(=O)=O)c([S+]([O-])C3CCCCC3)c2Cl)o1` (racemic) [Compound 3-435], for which the “Control efficacy grade, Eclipta prostrata” value in the test on Eclipta prostrata was “A (Fresh weight inhibition rate≥80% to 100%)”. Further, the “Control efficacy grade, Digitaria sanguinalis” value with Digitaria sanguinalis is on record as “A (Fresh weight inhibition rate≥80% to 100%)”. Moreover, the “Control efficacy grade, Echinochloa crusgalli” value in the test on Echinochloa crusgalli was “A (Fresh weight inhibition rate≥80% to 100%)”. Also, the “Control efficacy grade, Cyperus iria” value with Cyperus iria is given as “A (Fresh weight inhibition rate≥80% to 100%)”. The “Control efficacy grade, Leptochloa chinensis” value in the test with Leptochloa chinensis is given as “A (Fresh weight inhibition rate≥80% to 100%)”.
